Reference: publication PMC11845477, “Exploring the principles behind antibiotics with limited resistance” (Nature Communications, 2025)

Tests used:
[1] = system: A. baumannii ATCC 17978 (SEN) and A. baumannii ATCC BAA-1605 (MDR); test: Adaptive laboratory evolution (ALE), relative MIC of evolved lines; format: cell-based, Acinetobacter baumannii
In short: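 Ten parallel populations per antibiotic–ancestor pair were evolved in MHB at 37 °C, starting near 50% growth-inhibiting drug. Every 72 h they were passaged into 0.5–2.5× increasing concentrations, keeping the highest-drug well with OD600 > 0.2.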

[2] = system: E. coli BW25113: pUCacrAB; test: AcrAB-TolC efflux overexpression screen, relative MIC; format: cell-based, Escherichia coli; conditions: pUCacrAB vs empty pUC118 control
In short: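 Broth microdilution in MHB (supplemented MS for SCH79797), ten-step antibiotic dilutions, 5 × 10^5 cells/mL, 18 h at 37 °C with shaking; MIC is lowest concentration giving background-corrected OD600 < 0.05. Relative MIC as log2 ratio: ΔacrB vs wild-type; pUCacrAB vs empty pUC118 (plasmid strains under 100 µg/mL ampicillin). Mean of 3 biological replicates.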

Structure (SMILES): C[C@@H](O)[C@H]1C(=O)N2C(C(=O)O)=C(S[C@H]3CC[S@@+]([O-])C3)S[C@H]12 [Sulopenem]
- MIC of evolved line ([1]; AB-SEN (A. baumannii ATCC 17978), evolved line 1 of the given antibiotic): 8 µg/mL
- Relative MIC ([1]; AB-SEN (A. baumannii ATCC 17978), evolved line 1 vs ancestor): 8
- MIC of evolved line ([1]; AB-SEN (A. baumannii ATCC 17978), evolved line 2 of the given antibiotic): 1 µg/mL
- Relative MIC ([1]; AB-SEN (A. baumannii ATCC 17978), evolved line 2 vs ancestor): 1
- MIC of evolved line ([1]; AB-SEN (A. baumannii ATCC 17978), evolved line 3 of the given antibiotic): 16 µg/mL
- Relative MIC ([1]; AB-SEN (A. baumannii ATCC 17978), evolved line 3 vs ancestor): 16
- MIC of evolved line ([1]; AB-SEN (A. baumannii ATCC 17978), evolved line 4 of the given antibiotic): 16 µg/mL
- Relative MIC ([1]; AB-SEN (A. baumannii ATCC 17978), evolved line 4 vs ancestor): 16
- MIC of evolved line ([1]; AB-SEN (A. baumannii ATCC 17978), evolved line 5 of the given antibiotic): 64 µg/mL
- Relative MIC ([1]; AB-SEN (A. baumannii ATCC 17978), evolved line 5 vs ancestor): 64
- MIC of evolved line ([1]; AB-SEN (A. baumannii ATCC 17978), evolved line 6 of the given antibiotic): 16 µg/mL
- Relative MIC ([1]; AB-SEN (A. baumannii ATCC 17978), evolved line 6 vs ancestor): 16
- MIC of evolved line ([1]; AB-SEN (A. baumannii ATCC 17978), evolved line 7 of the given antibiotic): 16 µg/mL
- Relative MIC ([1]; AB-SEN (A. baumannii ATCC 17978), evolved line 7 vs ancestor): 16
- MIC of evolved line ([1]; AB-SEN (A. baumannii ATCC 17978), evolved line 8 of the given antibiotic): 8 µg/mL
- Relative MIC ([1]; AB-SEN (A. baumannii ATCC 17978), evolved line 8 vs ancestor): 8
- MIC of evolved line ([1]; AB-SEN (A. baumannii ATCC 17978), evolved line 9 of the given antibiotic): 16 µg/mL
- Relative MIC ([1]; AB-SEN (A. baumannii ATCC 17978), evolved line 9 vs ancestor): 16
- Relative MIC (log10) ([1]; AB-SEN (Acinetobacter baumannii ATCC 17978), evolved line 1): 0.9031 log10
- Relative MIC (log10) ([1]; AB-SEN (Acinetobacter baumannii ATCC 17978), evolved line 3): 1.204 log10
- Relative MIC (log10) ([1]; AB-SEN (Acinetobacter baumannii ATCC 17978), evolved line 5): 1.806 log10
- Relative MIC (log10) ([1]; AB-SEN (Acinetobacter baumannii ATCC 17978), evolved line 9): 1.204 log10
- Relative MIC (log10) ([1]; AB-SEN, Acinetobacter baumannii ATCC 17978, evolved line 7): 1.204 log10
- Relative MIC ([1]; Acinetobacter baumannii ATCC 17978 (AB-SEN), evolved line 1): 8
- Relative MIC ([1]; Acinetobacter baumannii ATCC 17978 (AB-SEN), evolved line 2): 1
- Relative MIC ([1]; Acinetobacter baumannii ATCC 17978 (AB-SEN), evolved line 3): 16
- Relative MIC ([1]; Acinetobacter baumannii ATCC 17978 (AB-SEN), evolved line 4): 16
- Relative MIC ([1]; Acinetobacter baumannii ATCC 17978 (AB-SEN), evolved line 5): 64
- Relative MIC ([1]; Acinetobacter baumannii ATCC 17978 (AB-SEN), evolved line 6): 16
- Relative MIC ([1]; Acinetobacter baumannii ATCC 17978 (AB-SEN), evolved line 7): 16
- Relative MIC ([1]; Acinetobacter baumannii ATCC 17978 (AB-SEN), evolved line 8): 8
- Relative MIC ([1]; Acinetobacter baumannii ATCC 17978 (AB-SEN), evolved line 9): 16
- Relative MIC (log2) ([2]; replicate 1): 0
- Relative MIC (log2) ([2]; replicate 2): 0
- Relative MIC (log2) ([2]; replicate 3): 0
